Assay results: the supplement of paper PMC13380429

Experiments:
[1] = test system: Vero E6; assay: cell viability relative to DMSO; higher = less toxic; conditions: 72 h
[2] = test system: HepG2; assay: as above; conditions: 72 h
[3] = test system: Calu-3; assay: as above; conditions: 72 h
[4] = test system: Caco-2; assay: as above; conditions: 72 h
[5] = test system: U2OS; assay: as above; conditions: 72 h
[6] = test system: Vero E6; assay: relative viability EC50 (midpoint between 100% and the lowest measured viability); higher = less toxic; conditions: 72 h
[7] = test system: HepG2; assay: as above; conditions: 72 h
[8] = test system: Calu-3; assay: as above; conditions: 72 h
[9] = test system: U2OS; assay: as above; conditions: 72 h
[10] = test system: A549-ACE2 infected with SARS-CoV-2; assay: SARS-CoV-2 infection rate relative to DMSO; higher = more infection; conditions: 24 h
[11] = test system: A549-ACE2 infected with SARS-CoV-2; assay: morphology score (similarity to uninfected cells); higher = more like uninfected cells; conditions: 24 h
[12] = test system: A549-ACE2; assay: phospholipidosis EC50; higher = less potent phospholipidosis inducer
[13] = test system: Vero E6; assay: drug sensitivity score (DSS) for viability; higher = more toxic; extreme values may be limits of the assay; conditions: 72 h
[14] = test system: HepG2; assay: as above; conditions: 72 h
[15] = test system: Calu-3; assay: as above; conditions: 72 h
[16] = test system: Caco-2; assay: as above; conditions: 72 h
[17] = test system: U2OS; assay: as above; conditions: 72 h
[18] = test system: A549-ACE2 infected with SARS-CoV-2; assay: cell count relative to DMSO; higher = less toxic; conditions: 24 h
[19] = test system: A549-ACE2; assay: drug-induced phospholipidosis relative to tamoxifen; higher = more phospholipidosis
[20] = test system: Caco-2; assay: relative viability EC50 (midpoint between 100% and the lowest measured viability); higher = less toxic; conditions: 72 h

COc1ccc(NC(=O)c2ccc(-c3ccc(-c4noc(C)n4)cc3C)cc2)cc1OCCN(C)C
Conditions | SARS-CoV-2 infection rate [%] | cell count [%] | cell viability [%] | morphology score | phospholipidosis EC50 [nM]
[1], 1 nM | – | – | 98.1 | – | –
[1], 10 nM | – | – | 98 | – | –
[1], 100 nM | – | – | 96.7 | – | –
[1], 1000 nM | – | – | 93.1 | – | –
[1], 10000 nM | – | – | 20.1 | – | –
[2], 1 nM | – | – | 121 | – | –
[2], 10 nM | – | – | 95.5 | – | –
[2], 100 nM | – | – | 109 | – | –
[2], 1000 nM | – | – | 90.1 | – | –
[2], 10000 nM | – | – | 6.6 | – | –
[3], 1 nM | – | – | 101 | – | –
[3], 10 nM | – | – | 102 | – | –
[3], 100 nM | – | – | 105 | – | –
[3], 1000 nM | – | – | 92.5 | – | –
[3], 10000 nM | – | – | 11.2 | – | –
[4], 1 nM | – | – | 101 | – | –
[4], 10 nM | – | – | 102 | – | –
[4], 100 nM | – | – | 104 | – | –
[4], 1000 nM | – | – | 92.4 | – | –
[4], 10000 nM | – | – | 54 | – | –
[5], 1 nM | – | – | 101 | – | –
[5], 10 nM | – | – | 105 | – | –
[5], 100 nM | – | – | 101 | – | –
[5], 1000 nM | – | – | 102 | – | –
[5], 10000 nM | – | – | 44.7 | – | –
[10], 0.1 µM | 97 | – | – | – | –
[10], 0.3 µM | 95 | – | – | – | –
[10], 1 µM | 82 | – | – | – | –
[10], 3 µM | 26 | – | – | – | –
[11], 0.1 µM | – | – | – | -0.01 | –
[11], 0.3 µM | – | – | – | 0.09 | –
[11], 1 µM | – | – | – | 0.43 | –
[11], 3 µM | – | – | – | 0.77 | –
[12], 24 h | – | – | – | – | 1000
[12], 48 h | – | – | – | – | 2130
[12], 72 h | – | – | – | – | 3020
[18], 0.1 µM | – | 102 | – | – | –
[18], 0.3 µM | – | 99 | – | – | –
[18], 1 µM | – | 109 | – | – | –
[18], 3 µM | – | 126 | – | – | –

Conditions | drug sensitivity score | relative viability EC50 [nM]
[6] | – | 2450
[7] | – | 2290
[8] | – | 2470
[9] | – | 3330
[13] | 5.5 | –
[14] | 6.8 | –
[15] | 6.1 | –
[16] | 3.7 | –
[17] | 2.8 | –

drug-induced phospholipidosis [%], [19]
Conditions | 0.3 µM | 0.833333 µM | 3.33333 µM | 6.66667 µM | 10 µM
24 h | 2.56 | 13.6 | 76.9 | 75.2 | 56
48 h | 4.9 | 6.68 | 68 | 79.2 | –
72 h | 5.85 | 5.56 | 57.7 | 86.2 | –

Cc1cccc(/C=N/Nc2cc(N3CCOCC3)n3nc(-c4ccncc4)cc3n2)c1 [APY0201]
Conditions | SARS-CoV-2 infection rate [%] | cell count [%] | cell viability [%] | morphology score | phospholipidosis EC50 [nM]
[1], 1 nM | – | – | 110 | – | –
[1], 10 nM | – | – | 104 | – | –
[1], 100 nM | – | – | 96.7 | – | –
[1], 1000 nM | – | – | 45.6 | – | –
[1], 10000 nM | – | – | 38.2 | – | –
[2], 1 nM | – | – | 99.8 | – | –
[2], 10 nM | – | – | 98.9 | – | –
[2], 100 nM | – | – | 82.8 | – | –
[2], 1000 nM | – | – | 31.3 | – | –
[2], 10000 nM | – | – | 22.3 | – | –
[3], 1 nM | – | – | 111 | – | –
[3], 10 nM | – | – | 101 | – | –
[3], 100 nM | – | – | 87.8 | – | –
[3], 1000 nM | – | – | 85.8 | – | –
[3], 10000 nM | – | – | 98.1 | – | –
[4], 1 nM | – | – | 95.5 | – | –
[4], 10 nM | – | – | 101 | – | –
[4], 100 nM | – | – | 92.8 | – | –
[4], 1000 nM | – | – | 97 | – | –
[4], 10000 nM | – | – | 80.1 | – | –
[5], 1 nM | – | – | 94.2 | – | –
[5], 10 nM | – | – | 97.7 | – | –
[5], 100 nM | – | – | 93.9 | – | –
[5], 1000 nM | – | – | 91.2 | – | –
[5], 10000 nM | – | – | 77.6 | – | –
[10], 0.3 µM | 41 | – | – | – | –
[10], 3 µM | 72 | – | – | – | –
[10], 10 µM | 72 | – | – | – | –
[10], 30 µM | 65 | – | – | – | –
[11], 0.3 µM | – | – | – | 0.21 | –
[11], 3 µM | – | – | – | -0.06 | –
[11], 10 µM | – | – | – | -0.03 | –
[11], 30 µM | – | – | – | -0.04 | –
[12], 24 h | – | – | – | – | 300
[12], 48 h | – | – | – | – | 1080
[12], 72 h | – | – | – | – | 851
[18], 0.3 µM | – | 113 | – | – | –
[18], 3 µM | – | 98 | – | – | –
[18], 10 µM | – | 94 | – | – | –
[18], 30 µM | – | 91 | – | – | –

Conditions | drug sensitivity score | relative viability EC50 [nM]
[6] | – | 392
[7] | – | 240
[8] | – | > 10000
[9] | – | > 10000
[13] | 10.4 | –
[14] | 14.8 | –
[15] | 2 | –
[16] | 1 | –
[17] | 1.2 | –
[20] | – | > 10000

drug-induced phospholipidosis [%], [19]
Conditions | 0.3 µM | 0.833333 µM | 3.33333 µM | 6.66667 µM | 10 µM | 30 µM
24 h | 100 | 98.4 | 102 | 100 | 85.1 | 97.8
48 h | 105 | 98.3 | 47.8 | 39.8 | – | 61.8
72 h | 141 | 95 | 33.5 | 42.7 | – | –

CCCCc1oc2ccc(NS(C)(=O)=O)cc2c1C(=O)c1ccc(OCCCN(CCCC)CCCC)cc1 [dronedarone]
Conditions | SARS-CoV-2 infection rate [%] | cell count [%] | cell viability [%] | morphology score | phospholipidosis EC50 [nM]
[1], 1 nM | – | – | 108 | – | –
[1], 10 nM | – | – | 105 | – | –
[1], 100 nM | – | – | 107 | – | –
[1], 1000 nM | – | – | 100 | – | –
[1], 10000 nM | – | – | 61.9 | – | –
[2], 1 nM | – | – | 110 | – | –
[2], 10 nM | – | – | 101 | – | –
[2], 100 nM | – | – | 110 | – | –
[2], 1000 nM | – | – | 99.6 | – | –
[2], 10000 nM | – | – | 17.6 | – | –
[3], 1 nM | – | – | 102 | – | –
[3], 10 nM | – | – | 108 | – | –
[3], 100 nM | – | – | 108 | – | –
[3], 1000 nM | – | – | 102 | – | –
[3], 10000 nM | – | – | 5.7 | – | –
[4], 1 nM | – | – | 101 | – | –
[4], 10 nM | – | – | 102 | – | –
[4], 100 nM | – | – | 94.7 | – | –
[4], 1000 nM | – | – | 102 | – | –
[4], 10000 nM | – | – | 44.6 | – | –
[5], 1 nM | – | – | 100 | – | –
[5], 10 nM | – | – | 107 | – | –
[5], 100 nM | – | – | 98.1 | – | –
[5], 1000 nM | – | – | 102 | – | –
[5], 10000 nM | – | – | 23 | – | –
[10], 0.1 µM | 95 | – | – | – | –
[10], 0.3 µM | 94 | – | – | – | –
[10], 1 µM | 65 | – | – | – | –
[10], 3 µM | 13 | – | – | – | –
[11], 0.1 µM | – | – | – | 0.12 | –
[11], 0.3 µM | – | – | – | 0.11 | –
[11], 1 µM | – | – | – | 0.64 | –
[11], 3 µM | – | – | – | 0.81 | –
[12], 24 h | – | – | – | – | 926
[12], 48 h | – | – | – | – | 2180
[12], 72 h | – | – | – | – | 2340
[18], 0.1 µM | – | 103 | – | – | –
[18], 0.3 µM | – | 100 | – | – | –
[18], 1 µM | – | 111 | – | – | –
[18], 3 µM | – | 112 | – | – | –

Conditions | drug sensitivity score | relative viability EC50 [nM]
[7] | – | 3130
[8] | – | 3280
[9] | – | 3290
[13] | 1.8 | –
[14] | 4.6 | –
[15] | 5.1 | –
[16] | 2.8 | –
[17] | 4.1 | –
[20] | – | 3380

drug-induced phospholipidosis [%], [19]
Conditions | 0.3 µM | 0.833333 µM | 3.33333 µM | 6.66667 µM | 10 µM | 30 µM
24 h | 5.9 | 23.1 | 79.1 | 94.6 | 47.9 | 35
48 h | 9.08 | 19 | 96 | 120 | – | –
72 h | 7.98 | 17 | 94.1 | 122 | – | –
